Test system: not listed separately
Experiment: Solubility in water / saline
Format: physicochemical
Conditions: not given

solubility in water	SMILES
water soluble	Cc1ccc(-c2cn3cccc(C)c3n2)cc1S(=O)(=O)N1CCN(C)CC1 [YB-540]

Biological target: T1, QR2 (Homo sapiens, UniProt P16083)
T1 construct: purchased Sigma-Aldrich
T1 sequence (P16083 1-231): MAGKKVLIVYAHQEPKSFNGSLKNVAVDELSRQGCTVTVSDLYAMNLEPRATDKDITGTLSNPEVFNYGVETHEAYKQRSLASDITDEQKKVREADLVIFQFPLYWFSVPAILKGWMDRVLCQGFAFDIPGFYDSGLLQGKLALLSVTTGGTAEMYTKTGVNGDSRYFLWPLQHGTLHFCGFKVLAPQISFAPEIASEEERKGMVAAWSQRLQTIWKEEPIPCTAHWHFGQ
Experiment: QR2 activity assay, BNAH fluorescence (standard/primary)
Format: biochemical
Conditions: Figure 2D; readout not stated
Excerpt: (§1) A drug discovery campaign strategy was initiated to screen compounds for QR2-specific, cell-free inhibition and in vitro activity, followed by SAR optimization (Figure 2A) to achieve highly specific and potent QR2 inhibitor synthesis. In order to establish a varied and chemically amenable starting point, we developed a high-throughput QR2 assay (Supplemental Methods) that we screened against a library with approximately 200,000 compounds. […] Compounds that replicated the initial hit result were then assayed similarly against QR1 to evaluate compound specificity (Figure 2B). From the HTS, a chemically tractable and attractive series of compounds containing a sulfone flanked by an amine and a heterocycle were identified and selected for SAR development (Figure 2C, Supplemental Methods, Supplemental Table 1, and Supplemental Table 2). […]
High Throughput Screen (H TS)
The enzymatic activity of QR 2 (10 nM) was measur ed using menadione (both Sigm a -Aldrich) as subst r at e and dihydro- benzylnicotinamide (BNAH; Tocris) as co-substrate(62). The reaction was performed in 50 mM Tri s HCl, 150 mM NaCl 0.01%Tween- 20 pH=8.5 (Sigma-Aldrich) at r oom tem per atur e. Briefl y, 3 µL of menadione alone (200 µM) or a mixture of menadione and QR2 (200 µM of […]
(§2) menadione and 10 nM of QR2) were dispensed in 1536-well black Nunc plates (Thermo-Fisher) using aMultidrop™ Combi Reagent Dispenser (Thermo-Fisher) and pre-incubated with compounds for 10min. BNAH (200µM) was t hen added (3 µL) to the reaction using a BioNex Solutions BNX1536plate washer and the plates were incubated for another 10 min. Fluorescence intensity was followed in a PHERAstar FS multi-mode plate reader (BMG Labtech) us i ng an optic module with excitation at 360 nm and emission at 470 nm. The initial HTS includedapproximately 200,000 compounds at a single concentrationof 5 µM. The chemical libraries used were Selleck Chemicals Bioactives, the Drug-like set from Enamine, HitFinder collection from Maybridge, Spectrum Collection from Microsource, Lopa c from Sigma -Aldrich and the diversity set s from Chem Div and Che m Br idge .
Initial ‘‘hit’’ compounds were defined as causing >30% reduction of enzyme activity. Compounds suspected to be fluorescent were re -assayed in an absorbance assay at 350 nm using the same reaction but in a higher volume (100 µL), in a transparent plate (Greiner Bio- One). ‘‘Hit’’ compounds resulting from both the fluorescence and absorbance assay wer e t ested in a concentration- response, and IC50 values were de t er mi ne d. In parallel, the same concentration response methodologywas appliedin a selectivity assay where QR2 enzymewas replaced byQR1 […]
Chromatography System, with UV/Vis detector 2489, using XBridge® Prep C18 10 μm 10x250 mm […]
was monitored by Wat er s UPLC-MS system: Acquity UPLC® H class with PDA detector, and using […]

SMILES	IC50 [µM]
Cc1nc(-c2ccc(C)c(S(=O)(=O)N3CCC(C)CC3)c2)cs1 [YB-104]	7.39
Cc1ccc(-c2cn3cccc(C)c3n2)cc1S(=O)(=O)N1CCN(C)CC1 [YB-540]	0.21
Cc1ccc(-c2nnc(-c3ccccc3)o2)cc1S(=O)(=O)N1CCN(C(=O)c2ccco2)CC1 [YB-789]	5.71
Cc1ccn2cc(-c3ccc(C)c(S(=O)(=O)NCc4cccnc4)c3)nc2c1 [YB-812]	6.92

Now from value to compound:

IC50 [µM]	SMILES
0.008	Cc1ccc(-c2cn3cccc(C)c3n2)cc1S(=O)(=O)N1CCN(C(=O)c2ccco2)CC1 [YB-792]
> 9.99	Cc1ccn2cc(-c3ccc(C)c(S(=O)(=O)Nc4ccc(Cl)cc4)c3)nc2c1 [YB-816]
> 9.99	Cc1ccc(-c2nnc(-c3ccccc3)o2)cc1S(=O)(=O)NCCCN1CCCC1=O [YB-818]

Biological target: T2, QR1 (Homo sapiens, UniProt P15559)
T2 construct: purchased Sigma-Aldrich
Experiment: QR1 selectivity assay, fluorescence
Format: biochemical
Conditions: Figure 2D; readout not stated
Excerpt: as §1, §2
Initial ‘‘hit’’ compounds were defined as causing >30% reduction of enzyme activity. Compounds suspected to be fluorescent were re -assayed in an absorbance assay at 350 nm using the same reaction but in a higher volume (100 µL), in a transparent plate (Greiner Bio- One). ‘‘Hit’’ compounds resulting from both the fluorescence and absorbance assay wer e t ested in a concentration- response, and IC50 values were de t er mi ne d. In parallel, the same

T2 sequence (P15559 whole entry): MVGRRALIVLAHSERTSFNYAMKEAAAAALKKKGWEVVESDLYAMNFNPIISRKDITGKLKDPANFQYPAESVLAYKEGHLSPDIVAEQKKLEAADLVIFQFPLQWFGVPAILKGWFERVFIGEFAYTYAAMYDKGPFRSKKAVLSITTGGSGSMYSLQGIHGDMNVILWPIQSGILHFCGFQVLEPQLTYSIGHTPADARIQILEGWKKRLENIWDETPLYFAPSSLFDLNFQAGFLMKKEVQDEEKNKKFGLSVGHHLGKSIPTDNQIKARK

SMILES	IC50 [µM]
Cc1ccc(-c2nnc(-c3ccccc3)o2)cc1S(=O)(=O)N1CCN(C(=O)c2ccco2)CC1 [YB-789]	> 9.99
Cc1ccn2cc(-c3ccc(C)c(S(=O)(=O)NCc4cccnc4)c3)nc2c1 [YB-812]	> 9.99

The next lines start with the values.

IC50 [µM]	SMILES
3.33	Cc1ccc(-c2cn3cccc(C)c3n2)cc1S(=O)(=O)N1CCN(C(=O)c2ccco2)CC1 [YB-792]
> 9.99	Cc1ccn2cc(-c3ccc(C)c(S(=O)(=O)Nc4ccc(Cl)cc4)c3)nc2c1 [YB-816]
> 9.99	Cc1ccc(-c2nnc(-c3ccccc3)o2)cc1S(=O)(=O)NCCCN1CCCC1=O [YB-818]

— paper PMC10541198, “Specific quinone reductase 2 inhibitors reduce metabolic burden and reverse Alzheimer’s disease phenotype in mice” (The Journal of Clinical Investigation, 2023)
